Results on 1 compound are retold here after patent US20090209497A1, “METHOD OF TREATING LYMPHANGIOLEIOMYOMATOSIS (LAM)” (priority 2005, published 2009).

The nature of the assay: Doxycycline therapy of a patient with LAM: clinical improvement (FEV1, O2 saturation, 6-min walk test). The format is in vivo, human. The settings on record: person with LAM, doxycycline 20 mg/day escalated up to 100 mg/day. An excerpt: FIGS. 1A-1B show successful treatment of LAM with doxycycline: monitoring therapeutic efficacy and measuring clinical improvement. […] Data points represent single measurements taken prior to or during doxycycline therapy. A person was diagnosed with LAM in 1975 after a partial nephrectomy for angiomyolipoma. Although stable for many years, their condition had deteriorated with an FEV1 as low as 0.48 liters (21 percent of predicted), and they were placed on the lung transplant list. […] Based on these elevated MMP levels, doxycycline was initiated at an initial dose of 20 mg/day. Dose escalation (up to 100 mg/day) was determined by monthly urinary MMP profiling (FIG. 1A) and how well the drug was tolerated. […] Telegraphic speech, which was present, resolved.

SMILES strings stand for the structures.

`C[C@H]1c2cccc(O)c2C(=O)C2=C(O)[C@]3(O)C(=O)C(C(N)=O)=C(O)[C@@H](N(C)C)[C@@H]3[C@@H](O)[C@@H]21` [doxycycline]: where the note is “before treatment 21 percent of predicted”, the “FEV1, percent of predicted” value was 35% of predicted. In addition, where the note is “before treatment as low as 0.48 liters”, the “FEV1 (lung capacity)” value was determined as 0.91 L.
